Assays:
Assay in all cases: relative viability (nuclei count vs DMSO), 5 days (fraction); higher = more cells survive
Elesclomol + Lapatinib = compound: CN(NC(=O)CC(=O)NN(C)C(=S)c1ccccc1)C(=S)c1ccccc1 [Elesclomol] + CS(=O)(=O)CCNCc1ccc(-c2ccc3ncnc(Nc4ccc(OCc5cccc(F)c5)c(Cl)c4)c3c2)o1 [Lapatinib] (partner 2 µM)
How it was run: (§1)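 Nuclei were stained with Hoechst during a one-step fixation (final 0.05% Triton X-100, 1% formaldehyde, 1 ug/ml Hoechst) carried out 5 days after dosing, then counted on 4× images. The cells, lung cancer lines in 1536-well plates, had been dosed by pin tool the day after seeding with one drug alone or a fixed anchor-drug dose plus five library-drug doses (not always all listed) in √10 steps. Relative viability is the nuclei count in treated wells divided by that in vehicle wells, and each value is the median of duplicate plates.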

Elesclomol + Alpelisib = compound: CN(NC(=O)CC(=O)NN(C)C(=S)c1ccccc1)C(=S)c1ccccc1 [Elesclomol] + Cc1nc(NC(=O)N2CCC[C@H]2C(N)=O)sc1-c1ccnc(C(C)(C)C(F)(F)F)c1 [Alpelisib] (partner 2 µM)
How it was run: as §1

Elesclomol + Dasatinib = compound: CN(NC(=O)CC(=O)NN(C)C(=S)c1ccccc1)C(=S)c1ccccc1 [Elesclomol] + Cc1nc(Nc2ncc(C(=O)Nc3c(C)cccc3Cl)s2)cc(N2CCN(CCO)CC2)n1 [Dasatinib] (partner 0.075 µM)
How it was run: as §1

Elesclomol + Phenformin = compound: CN(NC(=O)CC(=O)NN(C)C(=S)c1ccccc1)C(=S)c1ccccc1 [Elesclomol] + N=C(N)NC(=N)NCCc1ccccc1 [Phenformin] (partner 250 µM)
How it was run: as §1

Elesclomol + AZD7762 = compound: CN(NC(=O)CC(=O)NN(C)C(=S)c1ccccc1)C(=S)c1ccccc1 [Elesclomol] + NC(=O)Nc1cc(-c2cccc(F)c2)sc1C(=O)N[C@H]1CCCNC1 [AZD7762] (partner 0.2 µM)
How it was run: as §1

Row | Cell Line | relative viability (Elesclomol + Lapatinib; first compound 0.003162 µM) | relative viability (Elesclomol + Lapatinib; first compound 0.01 µM) | relative viability (Elesclomol + Lapatinib; first compound 0.03162 µM) | relative viability (Elesclomol + Lapatinib; first compound 0.1 µM) | relative viability (Elesclomol + Alpelisib; first compound 0.003162 µM) | relative viability (Elesclomol + Alpelisib; first compound 0.01 µM) | relative viability (Elesclomol + Alpelisib; first compound 0.03162 µM) | relative viability (Elesclomol + Alpelisib; first compound 0.1 µM) | relative viability (Elesclomol + Dasatinib; first compound 0.003162 µM) | relative viability (Elesclomol + Dasatinib; first compound 0.01 µM) | relative viability (Elesclomol + Dasatinib; first compound 0.03162 µM) | relative viability (Elesclomol + Dasatinib; first compound 0.1 µM) | relative viability (Elesclomol + Phenformin; first compound 0.003162 µM) | relative viability (Elesclomol + Phenformin; first compound 0.01 µM) | relative viability (Elesclomol + Phenformin; first compound 0.03162 µM) | relative viability (Elesclomol + Phenformin; first compound 0.1 µM) | relative viability (Elesclomol + AZD7762; first compound 0.003162 µM) | relative viability (Elesclomol + AZD7762; first compound 0.01 µM) | relative viability (Elesclomol + AZD7762; first compound 0.03162 µM) | relative viability (Elesclomol + AZD7762; first compound 0.1 µM)
1 | NCI-H1651 | 0.715 | 0.415 | 0.112 | 0.0857 | 0.762 | 0.435 | 0.235 | 0.0895 | 0.343 | 0.258 | 0.115 | 0.0916 | 0.321 | 0.257 | 0.151 | 0.1 | 0.462 | 0.469 | 0.345 | 0.334
2 | NCI-H1666 | 0.556 | 0.326 | 0.229 | 0.153 | 0.765 | 0.232 | 0.277 | 0.116 | 0.9 | 0.585 | 0.412 | 0.378 | 0.566 | 0.554 | 0.494 | 0.476 | 0.784 | 0.807 | 0.492 | 0.416
3 | NCI-H1734 | 1.11 | 0.893 | 0.294 | 0.125 | 0.722 | 0.588 | 0.625 | 0.131 | 0.473 | 0.421 | 0.144 | 0.113 | 0.369 | 0.343 | 0.38 | 0.191 | 0.518 | 0.45 | 0.145 | 0.0601
4 | NCI-H1755 | 1.05 | 0.939 | 0.887 | 0.236 | 0.931 | 0.9 | 0.909 | 0.24 | 0.446 | 0.357 | 0.433 | 0.214 | 0.624 | 0.466 | 0.605 | 0.57 | 0.457 | 0.349 | 0.38 | 0.406
5 | NCI-H1792 | 0.867 | 0.841 | 0.807 | 0.932 | 0.621 | 0.505 | 0.718 | 0.858 | 0.951 | 0.586 | 0.612 | 0.655 | 0.342 |  | 0.339 | 0.118 | 0.666 |  | 0.608 | 0.257
6 | NCI-H1793 | 0.657 | 0.613 | 0.651 | 0.112 | 0.759 | 0.654 | 0.768 | 0.164 | 0.358 | 0.268 | 0.373 | 0.136 | 0.302 | 0.35 | 0.335 | 0.247 | 0.442 | 0.448 | 0.464 | 0.104
7 | NCI-H1915 | 0.986 |  | 0.948 | 0.78 | 1.05 |  | 1.05 | 0.879 | 0.337 |  | 0.317 | 0.21 | 0.37 |  | 0.38 | 0.371 | 0.716 | 0.663 | 0.659 | 0.368
8 | NCI-H1944 | 0.829 | 0.714 | 0.846 | 0.688 | 0.887 | 0.736 | 0.881 | 0.825 | 0.223 | 0.205 | 0.229 | 0.155 | 0.216 | 0.169 | 0.212 | 0.201 | 0.469 | 0.567 | 0.408 | 0.206
9 | NCI-H1975 | 0.84 | 0.571 | 0.164 | 0.1 | 0.646 | 0.468 | 0.229 | 0.11 | 0.344 | 0.223 | 0.163 | 0.0599 | 0.43 | 0.329 | 0.388 | 0.281 | 0.779 | 0.406 | 0.292 | 0.212
10 | NCI-H1993 | 0.753 | 0.809 | 0.697 | 0.563 | 0.755 | 0.662 | 0.666 | 0.52 | 0.577 | 0.508 | 0.494 | 0.453 | 0.512 | 0.538 | 0.517 | 0.53 | 0.712 | 0.618 | 0.475 | 0.315
11 | NCI-H2085 | 0.761 | 0.521 | 0.397 | 0.376 | 0.895 | 0.621 | 0.555 | 0.286 | 0.242 | 0.235 | 0.273 | 0.235 | 0.676 | 0.588 | 0.512 | 0.305 | 1.04 | 0.875 | 0.394 | 0.25
12 | NCI-H2087 | 0.895 | 0.519 | 0.58 | 0.569 | 1.2 | 0.701 | 0.526 | 0.566 | 0.815 | 0.502 | 0.41 | 0.152 | 0.376 | 0.343 | 0.284 | 0.181 | 1.23 | 0.767 | 0.589 | 0.279
13 | NCI-H2126 | 0.731 | 0.698 | 0.791 | 0.766 | 0.719 | 0.713 | 0.717 | 0.739 | 0.659 | 0.512 | 0.3 | 0.215 | 0.562 | 0.526 | 0.538 | 0.46 | 1.02 | 0.972 | 0.95 | 0.929
14 | NCI-H2170 | 0.273 | 0.285 | 0.259 | 0.257 | 0.808 | 0.722 | 0.708 | 0.403 | 0.546 | 0.539 | 0.484 | 0.43 | 0.39 | 0.402 | 0.376 | 0.341 | 0.896 | 0.846 | 0.852 | 0.493
15 | NCI-H2347 | 0.876 | 0.776 | 0.902 | 0.761 | 1.04 | 0.928 | 0.955 | 0.513 | 0.29 | 0.373 | 0.287 | 0.185 | 0.426 | 0.231 | 0.294 | 0.281 | 0.703 | 0.661 | 0.629 | 0.447
16 | NCI-H2405 | 1.16 | 0.292 | 0.291 | 0.289 | 0.783 | 0.312 | 0.223 | 0.224 | 0.227 | 0.231 | 0.222 | 0.203 | 0.39 | 0.335 | 0.335 | 0.366 | 0.692 | 0.576 | 0.269 | 0.281
